Assay results published in patent publication US11447531B2, “Cleavable peptides and insecticidal and nematicidal proteins comprising same” (Vestaron Corporation, priority 2016, dated 2022).

test system: gut enzymes of Corn Earworm; assay: FRET peptide cleavage by lepidopteran gut enzymes (LEP); type: biochemical, Helicoverpa zea; settings: LEP (X); pooled FRET screening Round 1; slope of fluorescence over 10 minutes, steepest slope = 100%; representative cleavable sequences
From the text: Corn Earworm insects were obtained commercially from Benzon Research (Carlisle, Pa.) as eggs. Hatched larvae were raised on artificial diet until ⅘^th instar (20 mm long) before guts were isolated. Before gut extract, larvae were anesthetized using CO2. The larva was then pinned on the dissection plate at both the head and the tail. Using dissection scissors, the cuticle was nicked. The dissection scissors were then inserted into the nick and the […] along the insect. The cuticle was then carefully pulled back and pinned open to reveal the digestive track. Using DI water, the insect was thoroughly rinsed to remove hemolymph. The gut was then excised with tweezers and placed in a solution of 500 μL of 200 mM Tris-HCl pH 8.1 150 mM NaCl (assay buffer). The tube was pre-weighed and post-weighed to calculate the total amount of gut added. CEW gut was diluted to a stock concentration of 7 mg/ml (10×) in 200 mM Tris-HCl pH 8.1 150 mM NaCl. This was diluted fresh each plate by 20× with the assay buffer.

Point of comparison: RRF, “% of Max Slope” value 92%. Against it:
- AKF — higher, 93%
- AKS — lower, 90%
- AKT — lower, 90%
- AKY — higher, 93%
- ARF — higher, 93%
- ARS — lower, 90%
- ART — lower, 90%
- ARY — higher, 93%
- ISK — lower, 89%
- ISR — lower, 89%
- ITK — lower, 89%
- ITR — lower, 89%
- KKF — the same, 92%
- KKS — higher, 93%
- KKT — higher, 93%
- KKY — the same, 92%
- KRF — the same, 92%
- KRS — higher, 93%
- KRT — higher, 93%
- KRY — the same, 92%
- KSK — lower, 90%
- KSR — lower, 90%
- KTK — lower, 90%
- KTR — lower, 90%
- LSK — lower, 89%
- LTR — lower, 89%
- PKK — higher, 100%
- PKR — higher, 100%
- PRK — higher, 100%
- PRR — higher, 100%
- RKF — the same, 92%
- RKS — higher, 93%
- RKT — higher, 93%
- RKY — the same, 92%
- RRS — higher, 93%
- RRT — higher, 93%
- RRY — the same, 92%
- RSK — lower, 90%
- RSR — lower, 90%
- RTK — lower, 90%
- RTR — lower, 90%
- VKF — higher, 93%
- VKS — lower, 90%
- VKT — lower, 90%
- VKY — higher, 93%
- VRF — higher, 93%
- VRS — lower, 90%
- VRT — lower, 90%
- VRY — higher, 93%

same assay, conditions: LEP (X); pooled FRET screening; failed cleavable sequences

Point of comparison: PRR, “% of Max Slope” value 0%. Against it:
- PKK — the same, 0%
- PKR — the same, 0%
- PRK — the same, 0%
- VRY — the same, 0%

same assay, conditions: insect (LEP) simulated gut environment

For ALKLFV (cleavable linker), the “LEP cleavage (in words)” value was “rapid”.
For IFVRLR (cleavable linker), the “LEP cleavage (in words)” value was “rapid”.

test system: CEW gut extract; assay: not given; type: biochemical, Helicoverpa zea; settings: not given

In the case of ALKLFVGS (cleavable linker), the “cleavage of linking peptide in CEW gut extract (His-tagged western blot)” value is reported as “digestion and disappearance of the protein band”.
With IFVRLRGS (cleavable linker) the “cleavage of linking peptide in CEW gut extract (His-tagged western blot)” value was “digestion and disappearance of the protein band”.
For “IGER (listed as Pisum sativum) [control peptide that is only cleaved in insects, reference compound]”, the “cleavage of linking peptide in CEW gut extract (His-tagged western blot)” value was “only cleaves in the CEW gut extract”.

molecular target: T1, pepsin from porcine gastric mucosa (Sus scrofa, UniProt P00791); assay: not given; type: biochemical; settings: not given
T1 construct: from tissue; host or cells: porcine gastric mucosa
T1 sequence (P00791 60-385): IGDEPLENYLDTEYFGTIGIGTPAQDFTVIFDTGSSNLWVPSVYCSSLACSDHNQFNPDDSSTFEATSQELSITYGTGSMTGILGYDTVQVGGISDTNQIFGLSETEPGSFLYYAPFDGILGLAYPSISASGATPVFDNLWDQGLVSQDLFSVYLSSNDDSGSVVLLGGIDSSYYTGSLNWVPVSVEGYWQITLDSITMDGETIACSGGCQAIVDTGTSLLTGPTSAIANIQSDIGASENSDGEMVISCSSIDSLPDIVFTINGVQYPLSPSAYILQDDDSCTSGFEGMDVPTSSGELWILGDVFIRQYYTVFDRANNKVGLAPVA

For ALKLFVGS (cleavable linker), the “cleavage of linking peptide in SGF (His-tagged western blot)” value (from here on “cleavage of linking peptide in SGF”) was “digestion and disappearance of the protein band”.
In the case of IFVRLRGS (cleavable linker), the “cleavage of linking peptide in SGF” value is reported as “digestion and disappearance of the protein band”.
“IGER (listed as Pisum sativum) [control peptide that is only cleaved in insects, reference compound]” was tested, and the “cleavage of linking peptide in SGF” value was “retention of the intact protein band”.

test system: gut enzymes of Southern Corn Rootworm; assay: FRET peptide cleavage by coleopteran gut enzymes (COLEOP); settings: COLEOP (X); pooled FRET screening Round 1; slope of fluorescence over 10 minutes, steepest slope = 100%; representative cleavable sequences

Point of comparison: ALR, “% of Max Slope” value 70%. Against it:
- AIK — the same, 70%
- AIR — the same, 70%
- ALK — the same, 70%
- IKA — lower, 56%
- IKN — higher, 100%
- IKQ — higher, 100%
- IKS — lower, 68%
- IKT — lower, 68%
- IKV — lower, 56%
- INK — lower, 56%
- INR — lower, 56%
- IQK — lower, 56%
- IQR — lower, 56%
- IRN — higher, 100%
- IRQ — higher, 100%
- IRS — lower, 68%
- IRT — lower, 68%
- KIK — higher, 83%
- KIR — higher, 83%
- KLK — higher, 83%
- KLR — higher, 83%
- LKN — higher, 100%

same assay, conditions: COLEOP (X); pooled FRET screening; failed cleavable sequences

Point of comparison: IKQ, “% of Max Slope” value 0%. Against it:
- IKN — the same, 0%
- IRN — the same, 0%
- IRQ — the same, 0%
- LKN — lower, −2%

same assay, conditions: insect (COLEOP) simulated gut environment

In the case of ALKLFV (cleavable linker), the “COLEOP cleavage (in words)” value is reported as “rapid”.
With IFVRLR (cleavable linker) the “COLEOP cleavage (in words)” value was “rapid”.

molecular target: T2, pepsin or simulated human gastric fluid (SGF) (Sus scrofa, UniProt P00791); assay: not given; type: biochemical; settings: not given
T2 construct: purchased Sigma P6887
T2 sequence (P00791 60-385): as above

With ALKLFV (cleavable linker) the “SGF cleavage (in words)” value was “rapid”.
With IFVRLR (cleavable linker) the “SGF cleavage (in words)” value was “rapid”.

For ALKLFVGS (cleavable linker), the “% of Max Slope, Y” value was 88%.

test system: insect and/or nematode protease (X condition); assay: Round 2 and spacer FRET cleavage, X (insect) cleavage condition; type: biochemical; settings: Round 2 FRET, X-Y combinations
Method: Round 2 data from FRET molecules that represented a subset of binary combinations based on the observed top hits in Round 1 provided a hierarchical ranking of the various binary combinations. Round 2 FRET molecules were synthesized, resuspended, and tested in cleavage enzyme assays as described above in Round 1. Many combinations of binary cleavable linking peptides were tested against LEP, COLEOP and SGF conditions.
Data from the Round 2 FRET that exemplifies the combination of both X and Y cleavability in a binary or tertiary peptide are presented in Table 6.
To screen for potential spacers, FRET peptides were ordered as the binary peptide ALKLFVZ1Z2 and varied amino acids in positions Z1 and Z2. Some of the amino acids were screened as individuals and some were screened as pools. The peptides were re-suspended using 50% acetonitrile in water at a concentration of 2 μM of each peptide. For the one containing more than one FRET peptide, they were re-suspended so that each peptide was as 2 μM (assuming an equal portion of each one). These were then re-suspended and screened as described above for Round 1. The data does confirm that some amino acids in the Z position are more favorable than others. […] The greater the value of the slope in Table 7 the greater the activity of the amino acid when part of a spacer. The column in Table 7 labeled “Slope” indicates the speed of cleavage of the Linker.

In the case of ALKLFVGS (cleavable linker), the “% of Max Slope, X” value is reported as 100%.

test system: gut extract isolated from Southern Corn Rootworm; assay: not given; type: biochemical, Diabrotica undecimpunctata; settings: not given

ALKLFVGS (cleavable linker) was tested, and the “cleavage of linking peptide in SCR gut extract (His-tagged western blot)” value was “digestion and disappearance of the protein band”.
IFVRLRGS (cleavable linker) was tested, and the “cleavage of linking peptide in SCR gut extract (His-tagged western blot)” value was “digestion and disappearance of the protein band”.
For “IGER (listed as Pisum sativum) [control peptide that is only cleaved in insects, reference compound]”, the “cleavage of linking peptide in SCR gut extract (His-tagged western blot)” value was “retention of the intact protein band”.
